Measured values taken from ChEMBL document CHEMBL1201862, “PubChem BioAssay data set” (2004).
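The compound was tested at five concentrations on cells cultured in 96-well plates, with a 48-hour exposure period. Here, GI50 denotes the concentration required for 50% inhibition of growth.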 Activity calls are given as the source filed them. Rule as the data show it: active = GI50 up to about 1.1 µM and inactive = higher.

Tests used:
Test in all cases: NCI anticancer screen, dose series, 48 h
786-0 = system: 786-0
A549 = system: A549
ACHN = system: ACHN
CAKI-1 = system: CAKI-1
CCRF-CEM = system: CCRF-CEM
COLO 205 = system: COLO 205
DU-145 = system: DU-145
EKVX = system: EKVX
HCC 2998 = system: HCC 2998
HCT-116 = system: HCT-116
HCT-15 = system: HCT-15
HL-60 = system: HL-60
HOP-62 = system: HOP-62
HOP-92 = system: HOP-92
HT-29 = system: HT-29
Hs-578T = system: Hs-578T
IGROV-1 = system: IGROV-1
K562 = system: K562
KM12 = system: KM12
LOX IMVI = system: LOX IMVI
M14 = system: M14
MCF7 = system: MCF7
MDA-MB-231 = system: MDA-MB-231
MDA-MB-435 = system: MDA-MB-435
MDA-N = system: MDA-N
MOLT-4 = system: MOLT-4
Malme-3M = system: Malme-3M
NCI-H226 = system: NCI-H226
NCI-H23 = system: NCI-H23
NCI-H460 = system: NCI-H460
NCI-H522 = system: NCI-H522
NCI/ADR-RES = system: NCI/ADR-RES
OVCAR-3 = system: OVCAR-3
OVCAR-4 = system: OVCAR-4
OVCAR-5 = system: OVCAR-5
OVCAR-8 = system: OVCAR-8
PC-3 = system: PC-3
RPMI-8226 = system: RPMI-8226
RXF 393 = system: RXF 393
SF-268 = system: SF-268
SF-295 = system: SF-295
SF-539 = system: SF-539
SK-MEL-28 = system: SK-MEL-28
SK-MEL-2 = system: SK-MEL-2
SK-MEL-5 = system: SK-MEL-5
SK-OV-3 = system: SK-OV-3
SN12C = system: SN12C
SNB-19 = system: SNB-19
SNB-75 = system: SNB-75
SR = system: SR
SW-620 = system: SW-620
T47D = system: T47D
TK-10 = system: TK-10
U-251 = system: U-251
UACC-257 = system: UACC-257
UACC-62 = system: UACC-62
UO-31 = system: UO-31
A498 = system: A498

CC(NCc1c(O)ccc2c(-c3ccccc3)cc(=O)oc12)C(=O)O (stereo unspecified) was tested, and the GI50 (786-0) was > 100 µM (inactive), the GI50 (A549) was > 100 µM (inactive) and the GI50 (ACHN) was > 100 µM (inactive). The GI50 (CAKI-1) was > 100 µM (inactive), the GI50 (CCRF-CEM) was > 100 µM (inactive) and the GI50 (COLO 205) was > 100 µM (inactive). The GI50 (DU-145) was > 100 µM (inactive), the GI50 (EKVX) was > 100 µM (inactive) and the GI50 (HCC 2998) was > 100 µM (inactive). The GI50 (HCT-116) was > 100 µM (inactive), the GI50 (HCT-15) was > 100 µM and the GI50 (HL-60) was > 100 µM (inactive). For the same compound, the GI50 (HOP-62) was > 100 µM (inactive), the GI50 (HOP-92) was 86.1 µM (inactive) and the GI50 (HT-29) was > 100 µM (inactive). For the same compound, the GI50 (Hs-578T) was > 100 µM (inactive), the GI50 (IGROV-1) was > 100 µM (inactive) and the GI50 (K562) was > 100 µM (inactive). For the same compound, the GI50 (KM12) was > 100 µM (inactive), the GI50 (LOX IMVI) was > 100 µM (inactive) and the GI50 (M14) was > 100 µM (inactive). The GI50 (MCF7) was > 100 µM (inactive), the GI50 (MDA-MB-231) was > 100 µM (inactive) and the GI50 (MDA-MB-435) was > 100 µM (inactive). For the same compound, the GI50 (MDA-N) was > 100 µM (inactive), the GI50 (MOLT-4) was > 100 µM (inactive) and the GI50 (Malme-3M) was > 100 µM (inactive). For the same compound, the GI50 (NCI-H226) was > 100 µM (inactive), the GI50 (NCI-H23) was > 100 µM (inactive) and the GI50 (NCI-H460) was > 100 µM (inactive). The GI50 (NCI-H522) was > 100 µM (inactive), the GI50 (NCI/ADR-RES) was > 100 µM (inactive) and the GI50 (OVCAR-3) was > 100 µM (inactive). For the same compound, the GI50 (OVCAR-4) was > 100 µM (inactive), the GI50 (OVCAR-5) was > 100 µM (inactive) and the GI50 (OVCAR-8) was > 100 µM (inactive). The GI50 (PC-3) was > 100 µM (inactive), the GI50 (RPMI-8226) was > 100 µM (inactive) and the GI50 (RXF 393) was > 100 µM (inactive). The GI50 (SF-268) was > 100 µM (inactive), the GI50 (SF-295) was > 100 µM (inactive) and the GI50 (SF-539) was > 100 µM (inactive). The GI50 (SK-MEL-28) was > 100 µM (inactive), the GI50 (SK-MEL-2) was > 100 µM (inactive) and the GI50 (SK-MEL-5) was > 100 µM (inactive). For the same compound, the GI50 (SK-OV-3) was > 100 µM (inactive), the GI50 (SN12C) was > 100 µM (inactive) and the GI50 (SNB-19) was > 100 µM (inactive). For the same compound, the GI50 (SNB-75) was > 100 µM (inactive), the GI50 (SR) was > 100 µM (inactive) and the GI50 (SW-620) was > 100 µM (inactive). For the same compound, the GI50 (T47D) was > 100 µM (inactive), the GI50 (TK-10) was > 100 µM (inactive) and the GI50 (U-251) was > 100 µM (inactive). For the same compound, the GI50 (UACC-257) was > 100 µM (inactive), the GI50 (UACC-62) was > 100 µM (inactive) and the GI50 (UO-31) was > 100 µM (inactive).

In the case of CN1C/C(=C\c2ccccc2[N+](=O)[O-])C(=O)/C(=C/c2ccccc2[N+](=O)[O-])C1, the GI50 (786-0) is reported as 0.192 µM (active), the GI50 (A498) is reported as 1.93 µM (inactive) and the GI50 (A549) is reported as 3.43 µM (inactive). For the same compound, the GI50 (COLO 205) was 0.164 µM (active), the GI50 (DU-145) was 1.51 µM (inactive) and the GI50 (HCC 2998) was 1.45 µM (inactive). For the same compound, the GI50 (HCT-116) was 0.215 µM (active), the GI50 (HCT-15) was 0.251 µM and the GI50 (HL-60) was 0.0796 µM (active). For the same compound, the GI50 (HOP-62) was 2.95 µM (inactive), the GI50 (HOP-92) was 1.09 µM (active) and the GI50 (IGROV-1) was 0.442 µM (active). The GI50 (KM12) was 1.24 µM (inactive), the GI50 (MCF7) was 0.408 µM (active) and the GI50 (MOLT-4) was 0.192 µM (active). The GI50 (NCI-H226) was 3.09 µM (inactive), the GI50 (NCI-H460) was 2.57 µM (inactive) and the GI50 (NCI/ADR-RES) was 1.55 µM (inactive). For the same compound, the GI50 (PC-3) was 1.14 µM (inactive), the GI50 (SK-MEL-2) was 2.09 µM (inactive) and the GI50 (SK-MEL-5) was 1.32 µM (inactive). For the same compound, the GI50 (SK-OV-3) was 2.75 µM (inactive), the GI50 (SNB-19) was 6.1 µM (inactive) and the GI50 (SNB-75) was 1.86 µM (inactive). The GI50 (SW-620) was 0.173 µM (active), the GI50 (TK-10) was 0.893 µM (active) and the GI50 (U-251) was 1.7 µM (inactive). For the same compound, the GI50 (UACC-62) was 1.31 µM (inactive) and the GI50 (UO-31) was 0.373 µM (active).

In the case of COC(=O)[C@H]1ON2O[C@@H](O[C@H]3CCCC[C@@H]3C(C)(C)c3ccccc3)C[C@@H]3CC[C@H]1[C@@]32C, the GI50 (786-0) is reported as > 100 µM (inactive), the GI50 (A498) is reported as > 100 µM (inactive) and the GI50 (A549) is reported as > 100 µM (inactive). The GI50 (ACHN) was > 100 µM (inactive), the GI50 (CAKI-1) was > 100 µM (inactive) and the GI50 (CCRF-CEM) was > 100 µM (inactive). The GI50 (COLO 205) was > 100 µM (inactive), the GI50 (DU-145) was > 100 µM (inactive) and the GI50 (EKVX) was > 100 µM (inactive). For the same compound, the GI50 (HCC 2998) was > 100 µM (inactive), the GI50 (HCT-116) was > 100 µM (inactive) and the GI50 (HCT-15) was > 100 µM. The GI50 (HL-60) was > 100 µM (inactive), the GI50 (HOP-62) was > 100 µM (inactive) and the GI50 (HOP-92) was > 100 µM (inactive). The GI50 (HT-29) was > 100 µM (inactive), the GI50 (Hs-578T) was > 100 µM (inactive) and the GI50 (IGROV-1) was > 100 µM (inactive). For the same compound, the GI50 (K562) was > 100 µM (inactive), the GI50 (KM12) was > 100 µM (inactive) and the GI50 (LOX IMVI) was > 100 µM (inactive). The GI50 (M14) was > 100 µM (inactive), the GI50 (MCF7) was > 100 µM (inactive) and the GI50 (MDA-MB-435) was > 100 µM (inactive). For the same compound, the GI50 (MDA-N) was > 100 µM (inactive), the GI50 (MOLT-4) was > 100 µM (inactive) and the GI50 (NCI-H226) was > 100 µM (inactive). The GI50 (NCI-H23) was > 100 µM (inactive), the GI50 (NCI-H460) was > 100 µM (inactive) and the GI50 (NCI-H522) was > 100 µM (inactive). For the same compound, the GI50 (NCI/ADR-RES) was > 100 µM (inactive), the GI50 (OVCAR-3) was > 100 µM (inactive) and the GI50 (OVCAR-5) was > 100 µM (inactive). The GI50 (OVCAR-8) was > 100 µM (inactive), the GI50 (RPMI-8226) was > 100 µM (inactive) and the GI50 (RXF 393) was > 100 µM (inactive). The GI50 (SF-268) was > 100 µM (inactive), the GI50 (SF-295) was > 100 µM (inactive) and the GI50 (SK-MEL-5) was > 100 µM (inactive). For the same compound, the GI50 (SK-OV-3) was > 100 µM (inactive), the GI50 (SN12C) was > 100 µM (inactive) and the GI50 (SNB-75) was > 100 µM (inactive). For the same compound, the GI50 (SR) was > 100 µM (inactive), the GI50 (SW-620) was > 100 µM (inactive) and the GI50 (T47D) was > 100 µM (inactive). The GI50 (TK-10) was > 100 µM (inactive), the GI50 (U-251) was > 100 µM (inactive) and the GI50 (UACC-257) was > 100 µM (inactive). For the same compound, the GI50 (UACC-62) was > 100 µM (inactive) and the GI50 (UO-31) was > 100 µM (inactive).
